Reference: US20140072573A1, “METHOD OF TREATING RHEUMATOID ARTHRITIS” (Institut National de la Sante et de la Recherche Medicale …, priority 2012, published 2014)
Entries after “also recorded” stand apart in the source; their conditions may differ.

Legend:
Format in all cases: cell-based, human
[1] = system: VE-cadherin; experiment: VE-cadherin cytoplasmic fragment (VE-cyto) and 125 kDa full length protein in HUVEC extracts, western blot; conditions: for effect on TNFα-induced VE-cyto generation: L685 present
Procedure: (§1) Cell culture, extraction and immunoprecipitation: Endothelial cells were obtained from human umbilical vein (HUVECs) and grown to reach confluence in M199 medium supplemented with 10% fetal bovine serum (FCS), 2% Low Serum Growth Supplement LSGS (Cascade Biologics, USA) as previously described (Garnier-Raveaud et al., 2001). The 80% confluent HUVECs (passages 2 or 4) were used for most experiments. Confluent cells in 60 mm dishes were serum-starved in 1% fetal calf serum in M 199 for 24 h prior to testing. Before TNFα stimulation the cells were serum-starved for 2 hours, and then pre-treated for 15 min with sodium pervanadate (10 μM) and/or inhibitors as mentioned in text and figure legends. HUVECs were then stimulated with different concentrations of TNFα for various lengths of time as indicated. Otherwise, in most parts of this study, precisely in inhibition experiments TNFα was used at high concentration (i.e 100 ng/mL). As the inhibitors were diluted in dimethyl-sulfoxide (DMSO), control cells were systematically treated with DMSO 0.1% in any inhibition experiment.
Cells stimulation was stopped by medium collection and addition of 500 μl of ice-cold buffer A. The cells were harvested, homogenized and sonicated for 20 seconds. Cell lysates were collected after centrifugation for 15 min at […] at 14,000 g. The protein concentration was measured using the micro-bicinchoninic acid protein assay and cell lysates were stored at −80° C. before use.
(§2) Western blotting: Proteins were resolved by SDS-PAGE and transferred to nitrocellulose.

[2] = system: VE-cadherin; experiment: VE-cadherin extracellular fragment (VE-90) release in HUVEC conditioned media, western blot; conditions: for effect on TNFα-induced VE-90 release: 15 min pre-treatment, TNFα 100 ng/ml 45 min
Procedure: as §1
For conditioned medium analysis, the medium was collected and centrifuged for 15 minutes at 14,000 g at 4° C. The resulting supernatant was collected and proteins were concentrated by trichloro acetic acid precipitation (10%) overnight. After centrifugation at 14,000 g for 30 min, the pellet was re-suspended in Tris 50 mM (pH 11) and analyzed by SDS-PAGE and Western blotting.
as §2

[3] = system: HUVECs; experiment: Cell viability of treated HUVECs
[4] = system: VE-cadherin; experiment: VE-cadherin tyrosine phosphorylation in HUVEC lysates, immunoprecipitation and phosphotyrosine western blot; conditions: 50 μM, TNFα 100 ng/ml
Procedure: as §1
Cells stimulation was stopped by medium collection and addition of 500 μl of ice-cold buffer A. The cells were harvested, homogenized and sonicated for 20 seconds. […] The protein concentration was measured using the micro-bicinchoninic acid protein assay and cell lysates were stored at −80° C. before use. […]

Compound: CNC(=O)[C@H](Cc1c[nH]c2ccccc12)NC(=O)[C@@H](CC(=O)NO)CC(C)C [GM6001]
- effect on TNFα-induced VE-cyto generation ([1]; 10 μM pre-treatment): almost completely abrogated
- effect on TNFα-induced VE-90 release ([2]; 10 μM): drastically decreased
- cell viability ([3]; 10 μM): without affecting cell viability

Compound: CC(C)(C)n1nc(-c2ccc(Cl)cc2)c2c(N)ncnc21 [PP2]
- effect on TNFα-induced VE-cyto generation ([1]; 10 μM pre-treatment): strongly impaired
- effect on TNFα-induced VE-90 release ([2]; 10 μM): strongly decreased
- cell viability ([3]; 10 μM): without affecting cell viability

Compound: O=c1c(-c2ccc(O)cc2)coc2cc(O)cc(O)c12 [genistein]
- effect on TNFα-induced VE-cadherin tyrosine phosphorylation [4]: inhibited
- effect on TNFα-induced VE-cyto generation ([1]; 50 μM pre-treatment): strongly impaired
- effect on VE-cyto generation with or without pervanadate pre-treatment ([1]; both conditions (pervanadate pre-treated or not), TNFα): still decreased
- effect on TNFα-induced VE-90 release ([2]; 50 μM): strongly decreased
- cell viability ([3]; 50 μM): without affecting cell viability

Compound: TNFα
- appearance of VE-cyto upon TNFα challenge ([1]; HUVEC extracts, γ-secretase inhibitor L685 present, TNFα 100 ng/ml): clearly detected
- VE-90 release versus TNFα concentration ([2]; HUVECs, TNFα 0 up to 10 ng/ml, 45 min): increased in a dose-dependent manner; also recorded: dose-dependent release
- time of TNFα stimulation after which VE-90 was detected ([2]; HUVECs, TNFα 100 ng/ml): 10 min
- VE-90 release in conditioned media over time ([2]; HUVECs, TNFα 100 ng/ml, 5 to 60 min): time-dependent release; also recorded: increased in a time-dependent manner up to 60 min
- low TNFα concentration at which VE-90 release was early detected ([2]; HUVECs, dose-response 0 up to 10 ng/ml, 45 min): 0.5 ng/mL

Compound: sodium pervanadate
- effect on VE-cyto generation upon cytokine treatment ([1]; pervanadate pre-treated versus non pre-treated HUVECs): tremendous increase
